Experiment [1] concerns wt-mt (RNA, rRNA) GGCGUCACCCUCCUC/GAGGAGACAAGUCGCC
Nature of the experiment: fluorescence titration. The settings on record: 150 mM NaCl, 3 mM Na2EDTA; apparent; 10 mM HEPES pH 7.4; 1 μM RNA.

The subject of experiment [2] is mut-mt (RNA, rRNA) GGCGUCACCCUCCUC/GAGGAGGCAAGUCGCC
The experiment is described as follows: fluorescence titration. The settings on record: 150 mM NaCl, 3 mM Na2EDTA; apparent; 10 mM HEPES pH 7.4; 1 μM RNA.

Structures are written as SMILES.

Turning to `NC[C@@H]1O[C@H](O[C@H]2[C@@H](O)[C@H](O[C@@H]3[C@@H](O)[C@H](N)C[C@H](N)[C@H]3O[C@H]3O[C@H](CN)[C@@H](O)[C@H](O)[C@H]3N)O[C@@H]2CO)[C@H](N)[C@@H](O)[C@@H]1O`, the Kd was 1.1 ± 0.5 µM in experiment [1] and 0.1 ± 0.02 µM in experiment [2].
For `NC[C@@H]1O[C@H](O[C@H]2[C@@H](O)[C@H](O[C@@H]3[C@@H](O)[C@H](N)C[C@H](N)[C@H]3O[C@H]3O[C@H](CO)[C@@H](O)[C@H](O)[C@H]3N)O[C@@H]2CO)[C@H](N)[C@@H](O)[C@@H]1O` the same measures were 6.5 ± 0.9 µM and 2.8 ± 0.5 µM.
For `CCC[C@H]1[C@H](O)[C@@H](N)[C@@H](O[C@H]2[C@H](O[C@@H]3O[C@H](CO)[C@@H](O[C@H]4O[C@@H](CN)[C@@H](O)[C@H](O)[C@H]4N)[C@H]3O)[C@@H](O)[C@H](N)C[C@@H]2N)O[C@@H]1CO` the same measures were 26.9 ± 4.7 µM and 5.8 ± 1.8 µM.
`CCO[C@H]1[C@H](O)[C@@H](N)[C@@H](O[C@H]2[C@H](O[C@@H]3O[C@H](CO)[C@@H](O[C@H]4O[C@@H](CN)[C@@H](O)[C@H](O)[C@H]4N)[C@H]3O)[C@@H](O)[C@H](N)C[C@@H]2N)O[C@@H]1CO`: the Kd in experiment [1] was found to be 12.8 ± 2.8 µM; in experiment [2], 8.6 ± 2.1 µM.

These data come from article PMC6961810 (2019).
